Measured values published in patent US8163728B2, “Pyrazoles” (Hoffmann-La Roche Inc., priority 2009, dated 2012).

What follows are compounds tested against T1, GABA A α5 (Homo sapiens, UniProt P18507+P31644) (assay: [3H]flumazenil competition binding, human GABA A α5β3γ2 receptors in HEK293 cell membranes). Conditions: human receptor α5β3γ2 transiently transfected in HEK293; 0.5 nM [3H]flumazenil; 1 hour at 4° C.; means of two determinations; read-out: hKi GABA A α5.
T1 construct: expressed in transfected cells; host or cells: HEK293 cells, transiently transfected; membranes prepared from cell pellets
Summary of the method: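 Competition with [3H]flumazenil for binding to membranes of HEK293 cells transiently expressing human α5β3γ2, in Krebs-tris buffer pH 7.5. Incubated to equilibrium 1 h at 4 °C, filtered and scintillation-counted; Ki values are means of two determinations.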
`Cc1onc(-c2ccccn2)c1CNc1cc(C(=O)NC2(C)COC2)n(C)n1` [Example 162, 1-Methyl-3-((5-methyl-3-(pyridin-2-yl)isoxazol-4-yl)methylamino)-N-(3-methyloxetan-3-yl)-1H-pyrazole-5-carboxamide] showed a Ki of 30.3 nM.
With `Cc1onc(-c2ccc(F)cn2)c1CNc1cc(C(=O)NC(C)C)n(C)n1` [Example 163, 3-((3-(5-Fluoropyridin-2-yl)-5-methylisoxazol-4-yl)methylamino)-N-isopropyl-1-methyl-1H-pyrazole-5-carboxamide] the Ki was 99.5 nM.
In the case of `Cc1onc(-c2ccc(F)cn2)c1CNc1cc(C(=O)NC2CCOCC2)n(C)n1` [Example 164, 3-((3-(5-Fluoropyridin-2-yl)-5-methylisoxazol-4-yl)methylamino)-1-methyl-N-(tetrahydro-2H-pyran-4-yl)-1H-pyrazole-5-carboxamide], the Ki is reported as 11.9 nM.
For `Cc1onc(-c2ccc(F)cn2)c1CNc1cc(C(=O)NC2CC2)n(C)n1` [Example 165, N-Cyclopropyl-3-((3-(5-fluoropyridin-2-yl)-5-methylisoxazol-4-yl)methylamino)-1-methyl-1H-pyrazole-5-carboxamide], the Ki was 41.1 nM.
With `Cc1onc(-c2ccc(F)cn2)c1CNc1cc(C(=O)NCC2CC2)n(C)n1` [Example 166, N-(Cyclopropylmethyl)-3-((3-(5-fluoropyridin-2-yl)-5-methylisoxazol-4-yl)methylamino)-1-methyl-1H-pyrazole-5-carboxamide] the Ki was 55.6 nM.
`Cc1onc(-c2ccc(F)cn2)c1CNc1cc(C(=O)NC2(C)COC2)n(C)n1` [Example 167, 3-((3-(5-Fluoropyridin-2-yl)-5-methylisoxazol-4-yl)methylamino)-1-methyl-N-(3-methyloxetan-3-yl)-1H-pyrazole-5-carboxamide] showed a Ki of 16.2 nM.
`Cc1onc(-c2ccc(F)cn2)c1CNc1cc(C(=O)N2CC3(COC3)C2)n(C)n1` [Example 168, (3-((3-(5-Fluoropyridin-2-yl)-5-methylisoxazol-4-yl)methylamino)-1-methyl-1H-pyrazol-5-yl)(2-oxa-6-azaspiro[3.3]heptan-6-yl)methanone] showed a Ki of 77.7 nM.
